How the values were obtained:
[1] = test system: HCT116 ARID1A isogenic (+/+ and −/−) cell lines; assay: Clonogenic survival of ARID1A isogenic cells; assay type: cell-based, human
Procedure: (§1) FIG. 2. In vitro ARID1A/ATR synthetic lethality. A. Chemical structure of VX-970. B. Western blot of ARID1A in human ARID1A isogenic HCT116 cells. C. Image of colonies in 6 well-plate clonogenic assay. HCT116 ARID1A isogenic (^+/+ and ^−/−) cell lines were exposed to increasing concentrations of the VE-821 (0, 0.1, 1 uM) and VX-970 (0, 0.01, 0.05 uM) for 14 days. D and E. Dose response clonogenic survival curve of HCT116 ARID1A isogenic (^+/+ and ^−/−) cell lines exposed to increasing concentrations of the VE-821 and VX-970 for 14 days. Error bars represent SD from triplicate experiments, ANOVA p-value of <0.0001. F. Area under curve (AUC) box whisker comparison plot for human tumor cell lines exposed to VX-970 for five days. ARID1A wild type tumor cell lines (n=15) were compared to ARID1A mutant cell lines (n=9). Student's t-test p=0.00594. G. Dose response clonogenic survival curve of mouse Arid1a isogenic ES cell lines. Experiment was performed as per (C). Error bars represent SD from triplicate experiments, ANOVA p value of <0.0001. H. Western blot of Arid1a protein expression in mouse ES Arid1a isogenic cells. I. Z score box whisker comparison plot for 86 human tumor cell lines transfected with ATR siRNA. Cells lines were transfected with siRNA and cell viability was estimated five days later by Cell Titre Glo reagent.
Short-term survival assays were performed in 384-well plates. Exponentially growing cells were plated at a concentration of 500 cells/well. Drug was added 24 h after seeding and cells were continuously exposed to the drug for five days, after which cell viability was estimated using CellTitre-Glo luminescence (Promega). For clonogenic assays, cells were seeded in 6-well plates (500 cells/well) and continuously exposed to drug 24!h after seeding for 14 days. Media containing fresh drug was replaced every 72 hours. Cells were fixed with 10% trichloroacetic acid and stained with sulphorhodamine B (Sigma-Aldrich, Gillingham, UK). Colonies were counted manually. All cell-based assays were performed at least in triplicate.

[2] = test system: HCT116 ARID1A+/+ and ARID1A−/− cells; assay: Mitotic spreads, chromosomal aberrations; assay type: cell-based, human; settings: VX-970 1 uM; p=0.0007 Student's t-test
Procedure: FIG. 5. ATRi effect on cell cycle progression, chromosomal instability, DNA damage and apoptosis. A. Barchart illustrating G2/M fraction in HCT116 ARID1A^+/+ and ARID1A^−/− cells synchronized in G1/early S phase by double thymidine block and released into fresh media containing DMSO or VX-970 (500 nM). The percentage of cells in G2/M was measured by FACS following PI staining. […] Cells were stained with DAPI. A minimum of 50 anaphases were scored in 3 biological replicate experiments. *p=0.023, Student's t-test. C. Bar chart illustrating frequency of anaphase bridges in TOV21G cells exposed to VX-970 (0.5 uM) or DMSO for 8 hours prior to fixation. Experiment performed as for (B). p=0.006 Student's t-test. D. Mitotic spread images from HCT116 ARID1A^+/+ and ARID1A^−/− cells following exposure to either DMSO or VX-970 (1 uM). Scale bar represents 20 um. E. Bar chart illustrating extent of chromosomal abnormalities in HCT116 ARID1A^+/+ and ARID1A^−/− cells exposed to VX-970 (1 uM). *p<0.05, Student's t-test. F. Western blot illustrating γH2AX in HCT116 ARID1A^+/+ and ARID1A^−/− cells exposed to VX-970 (0.5 uM) for the indicated time prior to cell lyses. G. Bar chart illustrating apoptotic fraction in cells exposed to increasing concentrations of VX-970 for 24 hours. Experiment as per FIG. 3I. H. Western blot illustrating PARP cleavage in HCT116 ARID1A^+/+ and ARID1A^−/− cells exposed to VX-970. […]

[3] = test system: Arid1a+/+ and Arid1a−/− mouse embryonic stem (ES) cells; assay: Clonogenic survival of mouse Arid1a isogenic ES cells; assay type: cell-based; settings: p<0.001 ANOVA
Procedure: as §1, with “I. Z score box whisker comparison plot for 86 human tumor cell lines transfected with ATR siRNA. Cells lines were transfected with siRNA and cell viability was estimated five days later by Cell Titre Glo reagent.” left out
Short-term survival assays were performed in 384-well plates. […] Drug was added 24 h after seeding and cells were continuously exposed to the drug for five days, after which cell viability was estimated using CellTitre-Glo luminescence (Promega). […] Colonies were counted manually. […]

For CNCc1ccc(-c2cc(-c3nc(-c4ccc(S(=O)(=O)C(C)C)cc4)cnc3N)on2)cc1 [VX-970, 5-[4-(Isopropylsulfonyl)phenyl]-3-(3-{4-[(methylamino)methyl]phenyl}-1,2-oxazol-5-yl)-2-pyrazinamine], the “ARID1A−/− selectivity compared with PARP inhibitors or cisplatin” value [1] was “greater than for other proposed ARID1A-targeted agents”, the “frequency of chromosomal aberrations in ARID1A−/− cells” value [2] was “significant enhancement in the frequency of chromosomal aberrations” and the “selective targeting of Arid1a−/− ES cells in clonogenic assays” value [3] was “selectively targeted Arid1a^−/− ES cells”.

Reference: US12233060B2, “Inhibitors of Ataxia-Telangiectasia Mutated and Rad3-related protein kinase (ATR) for use in methods of treating cancer” (THE INSTITUTE OF CANCER RESEARCH: ROYAL CANCER HOSPITAL, priority 2016, dated 2025)
